Test results from patent publication US7138361B2, “Herbicidal heterocycles” (E. I. du Pont de Nemours and Company, priority 2000, dated 2006).

Experiments:
Type in all cases: in vivo
[1] = tested on: barnyardgrass (Echinochloa crus-galli); experiment: Test C flooded paddy test; details: for Barnyardgrass plant response rating: Flooded Paddy, scale 0 to 100, 0 no effect, 100 complete control; for Plant response rating, Barnyardgrass: flooded paddy test, scale 0 to 100 (0 no effect, 100 complete control)
In short: (§1)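 Visually assessed vs untreated controls 12–14 d post-treatment (greenhouse). Flooded paddy plants were at the 2-leaf stage; scale 0 = no effect, 100 = complete control.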

rice (Oryza saliva) = experiment: Test C flooded paddy test; details: for Rice plant response rating: Flooded Paddy, scale 0 to 100, 0 no effect, 100 complete control; for Plant response rating, Rice: flooded paddy test, scale 0 to 100 (0 no effect, 100 complete control)
In short: as §1

Sunflower = experiment: Test C preemergence; details: Rate 500 g/ha, visual evaluation after 12 to 14 days
[2] = tested on: crabgrass (Digitaria sanguinalis); experiment: Test C preemergence; details: for Plant response rating, Crabgrass: scale 0 to 100, 0 no effect, 100 complete control; for Plant response rating (0 to 100), Crabgrass: visual evaluation after 12 to 14 days
Text: (§2) Seeds of plant species selected from bermudagrass (Cynodon dactylon), Surinam grass (Brachiaria decumbens), cocklebur (Xanthium strumarium), corn (Zea mays), crabgrass (Digitaria sanguinalis), woolly cupgrass (Eriochloa villosa), giant foxtail (Setaria faberii), goosegrass (Eleusine indica), johnsongrass (Sorghum halepense), kochia (Kochia scoparia), lambsquarters (Chenopodium album), morningglory (Ipomoea hederacea), yellow nutsedge (Cyperus esculentus), pigweed (Amaranthus retroflexus), common ragweed (Ambrosia elatior), soybean (Glycine max) and velvetleaf (Abutilon theophrasti) were planted and treated preemergence with test chemicals formulated in a non-phytotoxic solvent mixture which included a surfactant.
(§3) At the same time, plants selected from these crop and weed species and also winter barley (Hordeum vulgare), blackgrass (Alopecurus myosuroides), canary grass (Phalaris minor), chickweed (Stellaria media), downy brome (Bromus tectorum), green foxtail (Setaria viridis), Italian ryegrass (Lolium multiflorum), wheat (Triticum aestivum), wild oat (Avena fatua) and windgrass (Apera spica-venti) were treated with postemergence applications of some of the test chemicals formulated in the same manner. Plants ranged in height from 2 to 18 cm (1- to 4-leaf stage) for postemergence treatments. Plant species in the flooded paddy test consisted of rice (Oryza saliva), smallflower flatsedge (Cyperus difformis), duck salad (Heteranthera limosa) and barnyardgrass (Echinochloa crus-galli) grown to the 2-leaf stage for testing. Treated plants and controls were maintained in a greenhouse for 12 to 14 days, after which time all species were compared to controls and visually evaluated. Plant response ratings, summarized in Table C, are based on a scale of 0 to 100 where 0 is no effect and 100 is complete control. A dash (-) response means no test result.

[3] = tested on: velvetleaf (Abutilon theophrasti); experiment: Test C preemergence; details: preemergence; for Plant response rating, Velvetleaf: scale 0 to 100, 0 no effect, 100 complete control
Text: as §2, §3

[4] = tested on: morningglory (Ipomoea hederacea); experiment: Test C preemergence; details: for Plant response rating, Morningglory: scale 0 to 100, 0 no effect, 100 complete control
Text: as §2, §3

corn (Zea mays) = experiment: Test C preemergence; details: for Plant response rating, Corn: scale 0 to 100, 0 no effect, 100 complete control; for Plant response rating (0 to 100), Corn: visual evaluation after 12 to 14 days
Text: as §2, §3

Nightshade = experiment: Test C preemergence; details: scale 0 to 100, 0 no effect, 100 complete control
Text: as §2, §3

kochia (Kochia scoparia) = experiment: Test C preemergence; details: for Plant response rating, Kochia: scale 0 to 100, 0 no effect, 100 complete control; for Plant response rating (0 to 100), Kochia: visual evaluation after 12 to 14 days
Text: as §2, §3

[5] = tested on: johnsongrass (Sorghum halepense); experiment: Test C preemergence; details: for Plant response rating, Johnsongrass: scale 0 to 100, 0 no effect, 100 complete control; for Plant response rating (0 to 100), Johnsongrass: visual evaluation after 12 to 14 days
Text: as §2, §3

[6] = tested on: bermudagrass (Cynodon dactylon); experiment: Test C preemergence; details: for Plant response rating, Bermudagrass: scale 0 to 100, 0 no effect, 100 complete control; for Plant response rating (0 to 100 where 0 is no effect and 100 is complete control), Bermudagrass: visual evaluation after 12 to 14 days
Text: as §2, §3

[7] = tested on: cocklebur (Xanthium strumarium); experiment: Test C preemergence; details: for Plant response rating, Cocklebur: scale 0 to 100, 0 no effect, 100 complete control; for Plant response rating (0 to 100), Cocklebur: visual evaluation after 12 to 14 days
Text: as §2, §3

[8] = tested on: lambsquarters (Chenopodium album); experiment: Test C preemergence; details: for Plant response rating, Lambsquarters: scale 0 to 100, 0 no effect, 100 complete control
Text: as §2, §3

[9] = tested on: giant foxtail (Setaria faberii); experiment: Test C preemergence; details: for Plant response rating, Foxtail, Giant: scale 0 to 100, 0 no effect, 100 complete control; for Plant response rating (0 to 100), Foxtail, Giant: visual evaluation after 12 to 14 days
Text: as §2, §3

[10] = tested on: common ragweed (Ambrosia elatior); experiment: Test C preemergence; details: preemergence; for Plant response rating, Ragweed, Common: scale 0 to 100, 0 no effect, 100 complete control
Text: as §2, §3

soybean (Glycine max) = experiment: Test C preemergence; details: preemergence; for Plant response rating, Soybean: scale 0 to 100, 0 no effect, 100 complete control
Text: as §2, §3

[11] = tested on: yellow nutsedge (Cyperus esculentus); experiment: Test C preemergence; details: for Plant response rating, Nutsedge: scale 0 to 100, 0 no effect, 100 complete control
Text: as §2, §3

[12] = tested on: goosegrass (Eleusine indica); experiment: Test C preemergence; details: for Plant response rating, Goosegrass: scale 0 to 100, 0 no effect, 100 complete control; for Plant response rating (0 to 100), Goosegrass: visual evaluation after 12 to 14 days
Text: as §2, §3

[13] = tested on: pigweed (Amaranthus retroflexus); experiment: Test C preemergence; details: preemergence; for Plant response rating, Pigweed: scale 0 to 100, 0 no effect, 100 complete control
Text: as §2, §3

[14] = tested on: Surinam grass (Brachiaria decumbens); experiment: Test C preemergence; details: for Plant response rating, Surinam grass: scale 0 to 100, 0 no effect, 100 complete control; for Plant response rating (0 to 100), Surinam grass: visual evaluation after 12 to 14 days
Text: as §2, §3

[15] = tested on: woolly cupgrass (Eriochloa villosa); experiment: Test C preemergence; details: for Plant response rating, Cupgrass, Woolly: scale 0 to 100, 0 no effect, 100 complete control; for Plant response rating (0 to 100), Cupgrass, Woolly: visual evaluation after 12 to 14 days
Text: as §2, §3

[16] = Rate 500 g/ha, visual evaluation after 12 to 14 days
[17] = preemergence, Rate 500 g/ha, visual evaluation after 12 to 14 days

For `CCC(C)c1ccn(C2OCN(c3cccc(OC(F)(F)F)c3)C2=O)n1` (stereo not shown) [Compound 67], the “Barnyardgrass plant response rating” value ([1]; Rate 250 g/ha) was 100, the “Barnyardgrass plant response rating” value ([1]; Rate 500 g/ha) was 100 and the “Plant response rating, Barnyardgrass” value ([1]; Rate 62 g/ha) was 60. The “Plant response rating, Barnyardgrass” value ([1]; Rate 125 g/ha) was 70, the “Rice plant response rating” value (rice (Oryza saliva); Rate 250 g/ha) was 60 and the “Rice plant response rating” value (rice (Oryza saliva); Rate 500 g/ha) was 90. The “Plant response rating, Rice” value (rice (Oryza saliva); Rate 62 g/ha) was 20, the “Plant response rating, Rice” value (rice (Oryza saliva); Rate 125 g/ha) was 40 and the “Plant response rating (0 to 100), Sunflower” value (Sunflower) was 30. The “Plant response rating, Crabgrass” value ([2]; Rate 62 g/ha) was 100, the “Plant response rating (0 to 100), Crabgrass” value ([2]; preemergence, Rate 250 g/ha) was 100 and the “Plant response rating (0 to 100), Crabgrass” value ([2]; preemergence, Rate 500 g/ha) was 100. For the same compound, the “Plant response rating, Crabgrass” value ([2]; preemergence, Rate 125 g/ha) was 100, the “Plant response rating (0 to 100), Velvetleaf” value [3, 16] was 30 and the “Plant response rating, Velvetleaf” value ([3]; Rate 125 g/ha) was 50. The “Plant response rating, Velvetleaf” value ([3]; Rate 250 g/ha) was 0, the “Plant response rating, Morningglory” value ([4]; Rate 62 g/ha) was 0 and the “Plant response rating (0 to 100), Morningglory” value [4, 17] was 20. For the same compound, the “Plant response rating, Morningglory” value ([4]; preemergence, Rate 125 g/ha) was 0, the “Plant response rating, Morningglory” value ([4]; preemergence, Rate 250 g/ha) was 0 and the “Plant response rating, Corn” value (corn (Zea mays); Rate 62 g/ha) was 0. For the same compound, the “Plant response rating (0 to 100), Corn” value (corn (Zea mays); preemergence, Rate 250 g/ha) was 0, the “Plant response rating (0 to 100), Corn” value (corn (Zea mays); preemergence, Rate 500 g/ha) was 100 and the “Plant response rating, Corn” value (corn (Zea mays); preemergence, Rate 125 g/ha) was 0. For the same compound, the “Plant response rating, Nightshade” value (Nightshade; Rate 62 g/ha) was 0, the “Plant response rating, Nightshade” value (Nightshade; Rate 125 g/ha) was 70 and the “Plant response rating, Nightshade” value (Nightshade; Rate 250 g/ha) was 80. For the same compound, the “Plant response rating, Kochia” value (kochia (Kochia scoparia); Rate 62 g/ha) was 90, the “Plant response rating (0 to 100), Kochia” value (kochia (Kochia scoparia); preemergence, Rate 250 g/ha) was 90 and the “Plant response rating (0 to 100), Kochia” value (kochia (Kochia scoparia); preemergence, Rate 500 g/ha) was 100. The “Plant response rating, Kochia” value (kochia (Kochia scoparia); preemergence, Rate 125 g/ha) was 100, the “Plant response rating, Johnsongrass” value ([5]; Rate 62 g/ha) was 30 and the “Plant response rating (0 to 100), Johnsongrass” value ([5]; preemergence, Rate 250 g/ha) was 100. For the same compound, the “Plant response rating (0 to 100), Johnsongrass” value ([5]; preemergence, Rate 500 g/ha) was 100, the “Plant response rating, Johnsongrass” value ([5]; preemergence, Rate 125 g/ha) was 60 and the “Plant response rating, Bermudagrass” value ([6]; Rate 62 g/ha) was 100. The “Plant response rating (0 to 100 where 0 is no effect and 100 is complete control), Bermudagrass” value ([6]; preemergence, Rate 250 g/ha) was 100, the “Plant response rating (0 to 100 where 0 is no effect and 100 is complete control), Bermudagrass” value ([6]; preemergence, Rate 500 g/ha) was 100 and the “Plant response rating, Bermudagrass” value ([6]; preemergence, Rate 125 g/ha) was 100. The “Plant response rating, Cocklebur” value ([7]; Rate 62 g/ha) was 0, the “Plant response rating (0 to 100), Cocklebur” value ([7]; preemergence, Rate 250 g/ha) was 20 and the “Plant response rating (0 to 100), Cocklebur” value ([7]; preemergence, Rate 500 g/ha) was 50. The “Plant response rating, Cocklebur” value ([7]; preemergence, Rate 125 g/ha) was 0, the “Plant response rating, Lambsquarters” value ([8]; Rate 62 g/ha) was 100 and the “Plant response rating (0 to 100), Lambsquarters” value [8, 17] was 100. For the same compound, the “Plant response rating, Lambsquarters” value ([8]; preemergence, Rate 125 g/ha) was 100, the “Plant response rating, Lambsquarters” value ([8]; preemergence, Rate 250 g/ha) was 100 and the “Plant response rating, Foxtail, Giant” value ([9]; Rate 62 g/ha) was 100. For the same compound, the “Plant response rating (0 to 100), Foxtail, Giant” value ([9]; preemergence, Rate 250 g/ha) was 70, the “Plant response rating (0 to 100), Foxtail, Giant” value ([9]; preemergence, Rate 500 g/ha) was 100 and the “Plant response rating, Foxtail, Giant” value ([9]; preemergence, Rate 125 g/ha) was 100. The “Plant response rating (0 to 100), Ragweed, Common” value [10, 16] was 70, the “Plant response rating, Ragweed, Common” value ([10]; Rate 125 g/ha) was 20 and the “Plant response rating, Ragweed, Common” value ([10]; Rate 250 g/ha) was 70. The “Plant response rating (0 to 100), Soybean” value (soybean (Glycine max); [16]) was 0, the “Plant response rating, Soybean” value (soybean (Glycine max); Rate 125 g/ha) was 0 and the “Plant response rating, Soybean” value (soybean (Glycine max); Rate 250 g/ha) was 0. For the same compound, the “Plant response rating, Nutsedge” value ([11]; Rate 62 g/ha) was 0, the “Plant response rating (0 to 100), Nutsedge” value [11, 17] was 20 and the “Plant response rating, Nutsedge” value ([11]; preemergence, Rate 125 g/ha) was 40. The “Plant response rating, Nutsedge” value ([11]; preemergence, Rate 250 g/ha) was 0, the “Plant response rating, Goosegrass” value ([12]; Rate 62 g/ha) was 100 and the “Plant response rating (0 to 100), Goosegrass” value ([12]; preemergence, Rate 250 g/ha) was 100. The “Plant response rating (0 to 100), Goosegrass” value ([12]; preemergence, Rate 500 g/ha) was 100, the “Plant response rating, Goosegrass” value ([12]; preemergence, Rate 125 g/ha) was 100 and the “Plant response rating (0 to 100), Pigweed” value [13, 16] was 80. For the same compound, the “Plant response rating, Pigweed” value ([13]; Rate 125 g/ha) was 90, the “Plant response rating, Pigweed” value ([13]; Rate 250 g/ha) was 80 and the “Plant response rating, Surinam grass” value ([14]; Rate 62 g/ha) was 0. The “Plant response rating (0 to 100), Surinam grass” value ([14]; preemergence, Rate 250 g/ha) was 100, the “Plant response rating (0 to 100), Surinam grass” value ([14]; preemergence, Rate 500 g/ha) was 100 and the “Plant response rating, Surinam grass” value ([14]; preemergence, Rate 125 g/ha) was 0. The “Plant response rating, Cupgrass, Woolly” value ([15]; Rate 62 g/ha) was 90, the “Plant response rating (0 to 100), Cupgrass, Woolly” value ([15]; preemergence, Rate 250 g/ha) was 100 and the “Plant response rating (0 to 100), Cupgrass, Woolly” value ([15]; preemergence, Rate 500 g/ha) was 100. The “Plant response rating, Cupgrass, Woolly” value ([15]; preemergence, Rate 125 g/ha) was 70.
